Experimental data taken from patent US9302999B2, “Substituted triazoles as herbicides” (E. I. DU PONT DE NEMOURS AND COMPANY, priority 2012, dated 2016).

What was measured:
Format in all cases: in vivo
rice (Oryza sativa) = assay: Test B flooded paddy: rice; settings: Flood; 250 g ai/ha; applied to paddy water at 2-leaf stage; visually evaluated after 13 to 15 days
Outline: (§1)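 At two leaves, seedlings received the test compound via the paddy water, pots having been flooded 3 cm over the soil surface and kept so. Greenhouse-held for 13 to 15 days, then judged by eye against controls on a scale running 0 (no effect) to 100 (complete control).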

[1] = test system: sedge, umbrella (small-flower umbrella sedge Cyperus difformis); assay: Test B flooded paddy: sedge, umbrella; settings: Flood; 250 g ai/ha; applied to paddy water at 2-leaf stage; visually evaluated after 13 to 15 days
Outline: as §1

[2] = test system: ducksalad (Heteranthera limosa); assay: Test B flooded paddy: ducksalad; settings: Flood; 250 g ai/ha; applied to paddy water at 2-leaf stage; visually evaluated after 13 to 15 days
Outline: as §1

wild oat (Avena fatua) = assay: Test C pre-/postemergence: wild oat; settings: Postemergence
Outline: (§2)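 Visual injury scored 0–100 (100 = complete control) against untreated controls after 13–15 greenhouse days. Surfactant-containing solvent formulations applied either to soil after sowing (loam/sand) or over 1- to 4-leaf plants, 2–18 cm tall.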

[3] = test system: bermudagrass (Cynodon dactylon); assay: Test C pre-/postemergence: bermudagrass; settings: Postemergence
Outline: as §2

[4] = test system: surinam grass (Brachiaria decumbens); assay: Test C pre-/postemergence: surinam grass; settings: Postemergence
Outline: as §2

corn (Zea mays) = assay: Test C pre-/postemergence: corn; settings: Postemergence
Outline: as §2

[5] = test system: woolly cupgrass (Eriochloa villosa); assay: Test C pre-/postemergence: woolly cupgrass; settings: Postemergence
Outline: as §2

[6] = test system: foxtail, giant (giant foxtail, Setaria faberii); assay: Test C pre-/postemergence: foxtail, giant; settings: Postemergence
Outline: as §2

[7] = test system: lambsquarters (Chenopodium album); assay: Test C pre-/postemergence: lambsquarters; settings: Postemergence
Outline: as §2

soybean (Glycine max) = assay: Test C pre-/postemergence: soybean; settings: Postemergence
Outline: as §2

[8] = test system: velvetleaf (Abutilon theophrasti); assay: Test C pre-/postemergence: velvetleaf; settings: Postemergence
Outline: as §2

[9] = test system: deadnettle (henbit deadnettle, Lamium amplexicaule); assay: Test C postemergence: deadnettle
Outline: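 Seedlings are raised in pots of peat-based medium to 2–18 cm (1- to 4-leaf stage). The formulated compound is then applied postemergence. Plants stay in the greenhouse for 13 to 15 days and are rated visually against controls, where 0 means no effect and 100 complete control.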

[10] = 31 g ai/ha, scale 0 to 100 (0 no effect, 100 complete control)
[11] = 62 g ai/ha, scale 0 to 100 (0 no effect, 100 complete control)
[12] = 125 g ai/ha, scale 0 to 100, 0 no effect, 100 complete control

FC(F)(F)c1ccc(-n2nc(Cl)c(Cc3ccnc(C(F)(F)F)c3)n2)cc1 [Compound 28]
Plant response rating, Rice (0 to 100 scale, 0 is no effect, 100 is complete control) (rice (Oryza sativa)): 80
Plant response rating, Sedge, Umbrella (0 to 100 scale, 0 is no effect, 100 is complete control) [1]: 95
Plant response rating, Ducksalad (0 to 100 scale, 0 is no effect, 100 is complete control) [2]: 95
Plant response rating, Oat, Wild (wild oat (Avena fatua); [10]): 10
Plant response rating, Oat, Wild (wild oat (Avena fatua); [11]): 15
Plant response rating, Oat, Wild (wild oat (Avena fatua); [12]): 40
Plant response rating, Oat, Wild (wild oat (Avena fatua); 250 g ai/ha, scale 0 to 100): 70
Plant response rating, Bermudagrass [3, 10]: 10
Plant response rating, Bermudagrass [3, 11]: 15
Plant response rating, Bermudagrass [3, 12]: 20
Plant response rating, Bermudagrass ([3]; 250 g ai/ha, scale 0 to 100): 25
Plant response rating, Surinam Grass [4, 10]: 5
Plant response rating, Surinam Grass [4, 11]: 10
Plant response rating, Surinam Grass [4, 12]: 15
Plant response rating, Surinam Grass ([4]; 250 g ai/ha, scale 0 to 100): 15
Plant response rating, Corn (corn (Zea mays); [10]): 15
Plant response rating, Corn (corn (Zea mays); [11]): 20
Plant response rating, Corn (corn (Zea mays); [12]): 25
Plant response rating, Corn (corn (Zea mays); 250 g ai/ha, scale 0 to 100): 25
Plant response rating, Cupgrass, Woolly [5, 10]: 20
Plant response rating, Cupgrass, Woolly [5, 11]: 30
Plant response rating, Cupgrass, Woolly [5, 12]: 35
Plant response rating, Cupgrass, Woolly ([5]; 250 g ai/ha, scale 0 to 100): 40
Plant response rating, Foxtail, Giant [6, 10]: 35
Plant response rating, Foxtail, Giant [6, 11]: 35
Plant response rating, Foxtail, Giant [6, 12]: 35
Plant response rating, Foxtail, Giant ([6]; 250 g ai/ha, scale 0 to 100): 50
Plant response rating, Lambsquarters [7, 10]: 35
Plant response rating, Lambsquarters [7, 11]: 35
Plant response rating, Lambsquarters [7, 12]: 95
Plant response rating, Lambsquarters ([7]; 250 g ai/ha, scale 0 to 100): 95
Plant response rating, Soybean (soybean (Glycine max); [10]): 30
Plant response rating, Soybean (soybean (Glycine max); [11]): 35
Plant response rating, Soybean (soybean (Glycine max); [12]): 35
Plant response rating, Soybean (soybean (Glycine max); 250 g ai/ha, scale 0 to 100): 60
Plant response rating, Velvetleaf [8, 10]: 20
Plant response rating, Velvetleaf [8, 11]: 25
Plant response rating, Velvetleaf [8, 12]: 35
Plant response rating, Velvetleaf ([8]; 250 g ai/ha, scale 0 to 100): 50
Plant response rating, Deadnettle [9, 10]: 40
Plant response rating, Deadnettle [9, 11]: 80
Plant response rating, Deadnettle [9, 12]: 90
Plant response rating, Deadnettle ([9]; 250 g ai/ha, scale 0 to 100): 100
